# Read-outs that look alike come from different tables or passages of the source.
# Legend:
# [1] = Urinary excretion and renal clearance of Compound A in the pharmacokinetic study; assay type: in vivo, human; settings: for mean amount excreted unchanged in urine / mean percentage of dose excreted unchanged in urine: over 48 hours following dosing
# Method: (§1) In this open-label, randomized study, subjects received the following treatments: • Two single oral doses of 100 mg (2×50 mg) Compound A adult immediate release tablet formulation, fasted state, administered on Day 1 and Day 12. • Repeat doses of phenytoin 100 mg TID for 10 days (from Day 3 until the morning of Day 12).
# (§2) Subjects fasted overnight for a minimum of 10 hours prior to dosing on Day 1 and Day 12. An oral dose of the Compound A IR tablet treatment was administered in the morning with approximately 240 mL of water at ambient temperature, to 1 subject per 2 minute intervals. Fasting continued for at least 4 hours following administration. Water was provided as needed until 1 hour pre-dose. Water was allowed beginning 1 hour after the administration of the drug.
# (§3) On Day 3 to Day 11, an oral dose of phenytoin was administered TID with approximately 240 mL of water at ambient temperature, starting at 07:30, 15:30, and 23:30 to 1 subject per 2 minute intervals. On Day 12, an oral dose of phenytoin was administered in the morning with approximately 240 mL of water at ambient temperature, starting at 07:30 (1 hour prior to Compound A dosing) to 1 subject per 2 minute intervals.
# (§4) The direct measurements of this study were the plasma, whole blood, urine, and saliva concentrations of Compound A and plasma concentrations for phenytoin.
# [2] = Safety: treatment-emergent adverse events (TEAEs) in the pharmacokinetic study; assay type: in vivo, human
# Method: as §1
# A total of 15 subjects (83%) reported 101 TEAEs over the course of the study. Three treatment periods were defined: Day 1 to Day 3 (following Compound A dosing on Day 1 and prior to start of phenytoin dosing on Day 3) corresponds to the Compound A treatment period, Day 3 to Day 12 (following phenytoin dosing on Day 3 and prior to Compound A dosing on Day 12) corresponds to the phenytoin treatment period, and Day 12 to the follow-up visit (following Compound A dosing on Day 12) corresponds to the Compound A in combination with phenytoin treatment period.
# [3] = tested on: CYP3A4, CYP2D6, CYP2C9; settings: has been reported; cited from earlier work
# [4] = Open-label randomized pharmacokinetic drug-drug interaction study: plasma PK of Compound A alone or with phenytoin; assay type: in vivo, human; settings: for Cmax / AUC / Tmax / AUC(0-t) / AUC(0-inf) / half-life: human, plasma; for Cmax / AUC / Tmax / half-life: 100 mg; for AUC(0-t): read-out: mean AUC0-t; for AUC(0-inf): read-out: mean AUC0-inf; for half-life: read-out: elimination half-life (converted)
# Method: as §1, §2, §3, §4
# The magnitude of DDI was described using GMR (with/without phenytoin) and associated 90% CI of the Cmax, AUC0-t, and AUC0-inf for Compound A.
# [5] = Compound A 100 mg + phenytoin 100 mg TID
# [6] = whole study (Compound A, phenytoin, combination)
# [7] = with phenytoin 100 mg TID for 10 days (Day 12) vs Compound A alone
# [8] = with vs without phenytoin comparison
compound,measurement,setting,value
"Cc1cc(S(=O)(=O)Nc2cscn2)c(F)cc1N(C)[C@H]1CCN(Cc2ccccc2)C1 [Compound A, (S)-4-((1-benzylpyrrolidin-3-yl)(methyl)amino)-2-fluoro-5-methyl-N-(thiazol-4-yl)benzenesulfonamide]",mean amount excreted unchanged in urine,[1]; [5],57186 ng
same,mean percentage of dose excreted unchanged in urine,[1]; [5],0.06%
same,mean amount excreted unchanged in urine,[1]; Compound A 100 mg alone,71103 ng
same,mean percentage of dose excreted unchanged in urine,[1]; Compound A 100 mg alone,0.07%
same,CL renal,"[1]; human, urine, oral, both treatments: presence (Day 12) or absence (Day 1) of phenytoin",0.05 to 0.0667 mL/min
same,CLr GMR,[1]; with/without phenytoin,100.25%
same,incidence of subjects with TEAEs,[2]; Compound A alone on Day 1,39%
same,incidence of subjects with TEAEs,[2]; Compound A in combination with phenytoin on Day 12,65%
same,deaths or SAEs,[2]; [6],No deaths or SAEs occurred
same,subjects reporting a severe TEAE,[2]; [6],None
same,metabolizing CYP enzymes,[3],"metabolized by CYP3A4, CYP2D6, and to a lesser extent CYP2C9"
same,effect of phenytoin 100 mg TID on Compound A total systemic exposure,[4]; 90% CI of GMR for AUC0-t and AUC0-inf within no effect boundaries 80.00-125.00%,did not affect
same,apparent clearance,[4]; Compound A alone,5.4 L/h
same,apparent volume of distribution,[4]; Compound A alone,89 L
same,apparent clearance,[4]; Compound A with phenytoin,5.7 L/h
same,apparent volume of distribution,[4]; Compound A with phenytoin,65 L
same,increase of peak plasma concentration (Cmax),[4]; co-administered with phenytoin 100 mg TID x 10 days vs Compound A alone,approximately 22%
same,Cmax,"[4]; oral, Compound A 100 mg alone, full sampling, read-out: mean Cmax",3300 ng/mL
same,AUC,"[4]; oral, Compound A 100 mg alone, truncated sampling",19900 ng·h/mL
same,Cmax,"[4]; oral, Compound A 100 mg alone, truncated sampling, read-out: Cmax",3220 ng/mL
same,Tmax,"[4]; oral, Compound A 100 mg alone, truncated sampling, read-out: Tmax",1 h
same,Cmax,"[4]; oral, Compound A 100 mg with phenytoin 100 mg TID x 10 days, full sampling, read-out: mean Cmax",3720 ng/mL
same,AUC,"[4]; oral, Compound A with phenytoin 100 mg TID x 10 days, truncated sampling",18600 ng·h/mL
same,Cmax,"[4]; oral, Compound A with phenytoin 100 mg TID x 10 days, truncated sampling, read-out: Cmax",3680 ng/mL
same,Tmax,"[4]; oral, Compound A with phenytoin 100 mg TID x 10 days, truncated sampling, read-out: Tmax",1 h
same,AUC(0-t),"[4]; oral, Compound A 100 mg + phenytoin 100 mg TID x 10 days, full sampling",17800 ng·h/mL
same,AUC(0-inf),"[4]; oral, Compound A 100 mg + phenytoin 100 mg TID x 10 days",18000 ng·h/mL
same,AUC(0-t),"[4]; oral, Compound A 100 mg alone, full sampling",19100 ng·h/mL
same,AUC(0-inf),"[4]; oral, Compound A 100 mg alone",19800 ng·h/mL
same,Tmax,"[4]; po, Compound A 100 mg single oral dose alone (Day 1), fasted, full sampling, read-out: time to peak plasma concentrations (Tmax)",~1 h
same,Tmax,"[4]; po, Compound A 100 mg single oral dose with phenytoin 100 mg TID for 10 days (Day 12), full sampling, read-out: time to peak plasma concentrations (Tmax)",~1 h
same,half-life,"[4]; po, Compound A alone",10 h
same,half-life,"[4]; po, Compound A with phenytoin",8 h
same,difference in AUC0-inf,[4]; [7],~7%
same,difference in AUC0-t,[4]; [7],approximately 4%
same,intra-subject CV % of AUC0-inf,[4]; [8],22%
same,intra-subject CV % of AUC0-t,[4]; [8],26%
same,intra-subject CV % of Cmax,[4]; [8],53%
same,AUC0-inf GMR,"[4]; with/without phenytoin, 90% CI 81.75-105.23%",92.75%
same,AUC0-t GMR,"[4]; with/without phenytoin, 90% CI 82.54-111.67%",96.01%
same,Cmax geometric mean ratio (GMR),"[4]; with/without phenytoin, 90% CI 90.94-162.38%",121.52%
"O=C1NC(=O)C(c2ccccc2)(c2ccccc2)N1 [phenytoin, reference compound]",incidence of subjects with TEAEs,[2]; phenytoin alone from Day 3 to Day 12,71%

# From patent US20230405023A1, “USE OF THE NAV1.6 SODIUM CHANNEL BLOCKER (S)-4-((1-BENZYLPYRROLIDIN-3-YL)(METHYL)AMINO)-2-FLUORO-5-METHYL-N(THIAZOL-4-YL)BENZENESULFONAMIDE, TOGETHER WITH STRONG INDUCERS OF CYTOCHROME P450 3A4, IN THE TREATMENT OF CONDITIONS ASSOCIATED WITH NAVI.6 ACTIVITY” (Xenon Pharmaceuticals Inc., priority 2020, published 2023)
